In patent US9624249B2, “Nucleoside kinase bypass compositions and methods” (Merck Sharp & Dohme Corp., priority 2013, dated 2017):
Like-named read-outs stand apart in the source and are kept apart here.

How the values were obtained:
HIV-1 (H9IIIB virus) = assay: Viking assay: multiple round HIV-1 infection assay in MT4-GFP cells; assay type: cell-based; conditions: Human immunodeficiency virus 1, read-out: Viking IP
Protocol: Assessing Antiviral Potency in a Multiple Round HIV-1 Infection Assay
The antiviral activity of the tenofovir prodrugs was assessed in a Viking assay performed as follows. HIV-1 replication was monitored using MT4-gag-GFP clone D3 (hereafter designate MT4-GFP), which are MT-4 cells modified to harbor a GFP reporter gene, the expression of which is dependent on the HIV-1 expressed proteins tat and rev. Productive infection of an MT4-GFP cell with HIV-1 results in GFP expression approximately 24 h post-infection.
MT4-GFP cells were maintained at 37° C./5% CO2/90% relative humidity in RPMI 1640 supplemented with 10% fetal bovine serum, 100 U/ml penicillin/streptomycin, and 400 μg/ml G418 to maintain the reporter gene. For infections, MT4-GFP cells were placed in the same medium lacking G418 and infected overnight with H9IIIB virus at an approximate multiplicity of infection of 0.01 in the same incubation conditions. Cells were then washed and resuspended in either RPMI 1640 containing 10% normal human serum at 1.6×10^5 cells/mL (10% NHS conditions) or in 100% normal human serum at 2×10^5 cells/mL (100% NHS conditions). Compound plates were prepared by dispensing compounds dissolved in DMSO into wells of 384 well poly D lysine-coated plates (0.2 μl/well) using an ECHO acoustic dispenser. Each compound was tested in a 10 point serial 3-fold dilution (typical final concentrations: 4.2 μM-0.21 nM). Controls included no inhibitor (DMSO only) and a combination of three antiviral agents (efavirenz, indinavir, and the integrase strand transfer inhibitor N1-ethyl-N1-((7S,10R)-2-((4-fluorobenzyl)-carbamoyl)-3-hydroxy-7-methoxy-4-oxo-4,6,7,8,9,10-hexahydropyrimido-[1,2-a]azepin-10-yl)-N2,N2-dimethyloxalamide at final concentrations of 4 μM each). Cells were added (50 μL/well) to compound plates and the infected cells were maintained at 37° C./5% CO2/90% relative humidity.
Infected cells were quantified at two time points, ˜48 h and ˜72 h post-infection, by counting the number of green cells in each well using an Acumen eX3 scanner. The increase in the number of green cells over ˜24 h period gives the reproductive ratio, R0, which is typically 5-15 and has been shown experimentally to be in logarithmic phase (data not shown) Inhibition of R0 is calculated for each well, and IC50s determined by non-linear 4-parameter curve fitting.

HCV GT1b = conditions: Cho et al. 2012, Table 1; cited from earlier work
[1] = system: hepatitis virus C (HCV) genotype 1a; assay: HCV subgenomic replicon assay (RHEPTAQ), genotype 1a; assay type: cell-based
Text: (§1) Table 3 and Table 4 summarize the measured activities of these prodrugs as assessed in a subgenomic replicon assay (RHEPTAQ), against genotypes 1a, 1b and 2a.

[2] = system: hepatitis virus C (HCV) genotype 1b; assay: HCV subgenomic replicon assay (RHEPTAQ), genotype 1b; assay type: cell-based
Text: as §1

[3] = system: hepatitis virus C (HCV) genotype 2a; assay: HCV subgenomic replicon assay (RHEPTAQ), genotype 2a; assay type: cell-based
Text: as §1

HIV-1 = conditions: HIV-1, PBMCs; cited from earlier work
[4] = RHEPTAQ replicon, genotype 1a; read-out: EC50(1a)
[5] = RHEPTAQ replicon, genotype 1a; read-out: EC90(1a)
[6] = RHEPTAQ replicon, genotype 1b, read-out: EC50(1b)
[7] = RHEPTAQ replicon, genotype 1b, read-out: EC90(1b)
[8] = RHEPTAQ replicon, genotype 2a, read-out: EC50(2a)
[9] = RHEPTAQ replicon, genotype 2a, read-out: EC90(2a)
[10] = Hepatitis C virus, RHEPTAQ replicon, genotype 1a; read-out: EC50(1a)
[11] = Hepatitis C virus, RHEPTAQ replicon, genotype 1a; read-out: EC90(1a)
[12] = Hepatitis C virus, read-out: EC50(2a), RHEPTAQ replicon, genotype 2a
[13] = Hepatitis C virus, read-out: EC90(2a), RHEPTAQ replicon, genotype 2a

## Cc1ccccc1OP(=O)(CO[C@H](C)Cn1cnc2c(N)ncnc21)OC1CSSC[C@@H]1OCc1ccccc1 (stereo partly shown) [Entry 10]
HIV-1 (H9IIIB virus)
  IC50: 2.92 µM
CTG LD50 (cytotoxicity)
  CTG LD50: >42.02 µM

## C[C@@]1(O)[C@H](O)[C@@H](COP(=O)(O)OP(=O)(O)OP(=O)(O)O)O[C@H]1n1ccc(=O)[nH]c1=O [triphosphate 2′-C-Me-U]
HCV GT1b
  EC50: 1.32 µM

## COCCOCCOCCO[C@H]1CSSCC1OP1(=O)OCC2O[C@@H](n3ccc(=O)[nH]c3=O)[C@](C)(O)[C@@H]2O1 (single isomer, unassigned) [drawing 111 isomer 3 and 4]
[1]; [4]
  EC50: 7 µM
[1]; [5]
  EC90: 16 µM
[2]; [6]
  EC50: 4 µM
[2]; [7]
  EC90: 12 µM
[3]; [8]
  EC50: 14 µM
[3]; [9]
  EC90: 37 µM

## C[C@H](Cn1cnc2c(N)ncnc21)OCP(=O)(Oc1ccccc1)OC1CSSC[C@H]1OCc1ccccc1 (stereo partly shown) [Entry 14]
HIV-1 (H9IIIB virus)
  IC50: 1.27 µM
CTG LD50 (cytotoxicity)
  CTG LD50: >8.403 µM

## C[C@H](Cn1cnc2c(N)ncnc21)OCP(=O)(Oc1ccccc1)OC1CSSC[C@@H]1OCc1ccccc1 (stereo partly shown) [Entry 1]
HIV-1 (H9IIIB virus)
  IC50: 1.27 µM
CTG LD50 (cytotoxicity)
  CTG LD50: >8.403 µM

## C[C@H](Cn1cnc2c(N)ncnc21)OCP(=O)(Oc1cccc(F)c1)OC1CSSC[C@@H]1OCc1ccccc1 (stereo partly shown) [Entry 3]
HIV-1 (H9IIIB virus)
  IC50: 0.62 µM
CTG LD50 (cytotoxicity)
  CTG LD50: >42.02 µM

## C[C@H](Cn1cnc2c(N)ncnc21)OCP(=O)(Oc1ccccc1F)OC1CSSC[C@@H]1OCc1ccccc1 (stereo partly shown) [Entry 2]
HIV-1 (H9IIIB virus)
  IC50: 0.605 µM
CTG LD50 (cytotoxicity)
  CTG LD50: >8.403 µM

## C[C@@]1(O)[C@@H]2OP(=O)(OC3CSSC[C@@H]3OCc3ccccc3)OCC2O[C@H]1n1ccc(=O)[nH]c1=O (single isomer, unassigned) [drawing 109 isomer 2]
[1]; [4]
  EC50: 0.05 µM
[1]; [5]
  EC90: 0.154 µM
[2]; [6]
  EC50: 0.037 µM
[2]; [7]
  EC90: 0.245 µM
[3]; [8]
  EC50: 0.044 µM
[3]; [9]
  EC90: 0.244 µM

## C[C@H](Cn1cnc2c(N)ncnc21)OCP(=O)(O)O [tenofovir]
HIV-1
  EC50: 1.2 µM

## C[C@@]1(O)[C@@H]2OP(=O)(OC3CSSC[C@@H]3OCc3ccccc3)OCC2O[C@H]1n1ccc(=O)[nH]c1=O (single isomer, unassigned) [drawing 109 isomer 1]
[1]; [4]
  EC50: 0.07 µM
[1]; [5]
  EC90: 0.233 µM
[2]; [6]
  EC50: 0.11 µM
[2]; [7]
  EC90: 0.383 µM
[3]; [8]
  EC50: 0.09 µM
[3]; [9]
  EC90: 0.442 µM

## C[C@@]1(O)[C@@H]2OP(=S)(OC3CSSC[C@@H]3OCc3ccccc3)OCC2O[C@H]1n1ccc(=O)[nH]c1=O (single isomer, unassigned) [drawing 110 isomer 1 and 2]
[1]; read-out: EC50(1a); RHEPTAQ replicon, genotype 1a
  EC50: 4 µM
[1]; read-out: EC90(1a); RHEPTAQ replicon, genotype 1a
  EC90: 8 µM

## C#CCO[C@H]1CSSCC1OP1(=O)OCC2O[C@@H](n3ccc4c(N)ncnc43)[C@](C)(O)[C@@H]2O1 (stereo partly shown)
[1]; [10]
  EC50: 0.159 µM
[1]; [11]
  EC90: 0.991 µM
[2]; Hepatitis C virus, RHEPTAQ replicon, genotype 1b, read-out: EC50(1b)
  EC50: 0.078 µM
[2]; Hepatitis C virus, RHEPTAQ replicon, genotype 1b, read-out: EC90(1b)
  EC90: 0.318 µM
[3]; [12]
  EC50: 0.135 µM
[3]; [13]
  EC90: 0.115 µM

## C[C@@]1(O)[C@@H]2OP(=O)(OC3CSSC[C@@H]3OCc3ccccc3)OCC2O[C@H]1n1ccc(=O)[nH]c1=O (single isomer, unassigned) [drawing 109 isomer 3 and 4]
[1]; [4]
  EC50: 0.305 µM
[1]; [5]
  EC90: 0.782 µM
[2]; [6]
  EC50: 0.362 µM
[2]; [7]
  EC90: 0.783 µM
[3]; [8]
  EC50: 0.315 µM
[3]; [9]
  EC90: 1.07 µM

## C#CCO[C@H]1CSSCC1OP(=O)(NCc1ccccc1)OCC1O[C@@H](n2ccc3c(N)ncnc32)[C@](C)(O)[C@@H]1O (stereo partly shown)
[1]; [10]
  EC50: 12.8 µM
[1]; [11]
  EC90: 25.5 µM
[2]; Hepatitis C virus, read-out: EC50(1b), RHEPTAQ replicon, genotype 1b
  EC50: 8.5 µM
[2]; Hepatitis C virus, read-out: EC90(1b), RHEPTAQ replicon, genotype 1b
  EC90: 17.7 µM
[3]; [12]
  EC50: 1.9 µM
[3]; [13]
  EC90: 7.9 µM

## COc1ccccc1OP(=O)(CO[C@H](C)Cn1cnc2c(N)ncnc21)OC1CSSC[C@@H]1OCc1ccccc1 (stereo partly shown) [Entry 12]
HIV-1 (H9IIIB virus)
  IC50: 1.55 µM
CTG LD50 (cytotoxicity)
  CTG LD50: >39.78 µM
